Common to all, as to type: cell-based
In assay [1] the target is T1, LPA receptor LPAR5 (Homo sapiens, UniProt Q9H1C0). Nature of the assay: Aggregation assay for washed human blood platelets (LPA-induced). The conditions noted are these: reduction of the maximal aggregation, 5 minutes incubation at 37° C. As for the experimental part:
A) Aggregation Assay for Washed Human Blood Platelets (Thrombocytes)
Whole blood was collected from healthy volunteers using 3×20 ml syringes containing each 1/10 volume of buffered citrate. The anticoagulated whole blood was transferred into 50 ml polypropylene conical tubes (30 ml per tube). The tubes were centrifuged for 10 minutes at 150×g at room temperature without using the centrifuge brake. This procedure results in a lower phase of cellular components and a supernatant (upper phase) of platelet rich plasma (PRP). The PRP phase was collected from each tube and pooled for each donor. To avoid carry over of cellular components following first centrifugation, approximately 5 ml of PRP was left in the tube. The platelet concentration was determined using a ABX Micros 60 counter. The PRP phase was transferred to a new 50 ml tube. After 10 minutes standing at room temperature, 1 μl PGI2 (1 mM in Tris-HCl/pH 8.8) and 180 μl ACD/A were added per ml PRP. The PRP was then transferred to new 10 ml tube and centrifuged for 10 minutes at 500×g. After centrifugation a cellular pellet is visible at the bottom of the tube. The supernatant was carefully discarded and the cellular pellet, consisting of human blood platelets was then dissolved in 10 ml buffer T (buffer T composition: 145 mM NaCl, 5 mM KCl, 0.1 mM MgCl2×6 H2O, 15 mM HEPES, 5.5 mM glucose, pH 7.4). Platelet concentration in this solution was determined and buffer T was added to obtain a final concentration of 3.5×10^5 platelets per ml.
After 10 minutes at room temperature, 1 μl PGI2 per ml platelet solution was added and distributed into new 10 ml tubes. After a centrifugation step, 10 minutes at 500×g, supernatant was discarded and the platelets were resuspended in buffer T to a final concentration of 3.5×10^5 platelets per ml buffer T. Before use, platelet-containing buffer equilibrated for 30 minutes at room temperature. The human platelet aggregation assay was performed in single use cuvettes using the Platelet Aggregation Profiler® (PAP-4 or -8E, BIO/DATA Corporation). For a single experiment, 320 μl of platelet solution were transferred into an assay cuvette, 20 μl of calcium citrate solution (10 mM in H2O) and 20 μl of fibrinogen solution (20 mg/ml H2O) were added. The aggregation assay was performed in the assay cuvette at 37° C. and with 1.200 rpm stirring. To determine the EC50, eight assay cuvettes were loaded as described above with different concentrations of LPA. Aggregation was measured over 6 minutes at 37° C. with 1200 rpm (revolutions per minute) stirring. Results of the assay are expressed as % activation, and are calculated using maximum aggregation (Tmax) or area under curve (AUC) of the absorbance over 6 minutes. The inhibitory effect (IC50) of the test compounds was determined as the reduction of the maximal aggregation. Test compound was added prior starting the experiment with an incubation time of the test compound of 5 minutes at 37° C. with 1200 rpm stirring. The IC50 data of the above described platelet aggregation assay using human washed platelets for exemplary compounds of the present invention are shown in Table 1.

The target in assay [2] is T1, LPA receptor LPAR5. Put plainly: FLIPR assay, intracellular Ca2+ release in human mast cell line HMC-1. The arrangement: two cell lines were used with high LPAR5 expression; endogenous in cells; host or cells: HMC-1 human mast cell line. The conditions noted are these: human mast cell line HMC-1, LPA-stimulated Ca2+ release, test compounds added 10 minutes prior LPA. The source says:
(§1) B) Use of the Fluorometric Imaging Plate Reader (FLIPR) Assay for the Determination of Intracellular Ca^2+ Release in Human Mast Cell Line HMC-1 and the Murine Microglia Cell Line BV-2
(§2) The ability of the compounds of the formula I to inhibit or bind the LPA receptor LPAR5 can be assessed by determining the intracellular Ca^2+ release in human or animal cells. For the analysis of activating potential of LPA and the inhibitory effects of compounds of the formula I two cell lines were used with high LPAR5 expression, the human mast cell line HMC-1 and the murine microglia cell line BV-2 (Figures 1 and 2). For the FLIPR assay using human mast cells in a 96-well-format, HMC-1 suspension cells from flask culture were harvested, resuspended and counted. 14×10^6 HMC-1 cells were transferred into a new 50 ml tube, centrifuged for 3 minutes at 540×g. The resulting cell pellet at the bottom of the tube was resuspended with 15 ml loading buffer (loading buffer contained HBSS buffer (pH 7.4), 0.1% BSA (bovine serum albumin), 2 μM FLUO-4 dye; HBSS buffer (pH 7.4) contained 1×HBSS, 20 mM HEPES, 0.01% Pluronic F-127, 2.5 mM Probenicid).
Cells in loading buffer were incubated for 45-60 minutes at 37° C. After incubation cells were centrifuged for 3 minutes at 540×g and resuspended with 21 ml of HBSS buffer (pH 7.4). Each well of a poly-D-lysine coated 96-well-plate was filled with 150 μl cell solution, an equivalent of 100 000 cells/well. The 96-well-plate was centrifuged for 2 minutes at 100×g (without brake) prior a recovery time of 30 minutes at 37° C. After this procedure cells were stimulated with LPA (in HBSS pH 7.4 and 0.1% BSA) to determine the EC50 of LPA in HMC-1 cells. For the determination of the inhibitory effect of compounds of the formula I, test compounds were added to the cells in the 96-well-plate 10 minutes prior the addition of LPA. Results of the assay are expressed as % activation, and are calculated using maximum peak of activation (Amax). The IC50 data of the above described FLIPR assay using human mast cell line HMC-1 for exemplary compounds of the present invention are shown in Table 2. Adherent BV-2 cells were seeded onto poly-D-lysine coated 96-well-plates (100000 cells/well) the day before performing the FLIPR assay. The density of the cells in the 96-well-plate at the day of the FLIPR assay should be 90%. After aspiration of the culture media, BV-2 cells were incubated for 30 minutes at 37° C. with loading buffer and recovered in 150 μl HBSS buffer for 30 minutes at 37° C. After this procedure cells were stimulated with LPA (in HBSS pH 7.4 and 0.1% BSA) to determine the EC50 of LPA in BV-2 cells. For the determination of the inhibitory effect of compounds of the formula I, test compounds were added to the cells in the 96-well-plate 10 minutes prior the addition of LPA. The IC50 data of the above described FLIPR assay using the murine microglia cell line BV-2 for exemplary compounds of the present invention are shown in Table 3.

The target in assay [3] is T2, LPA receptor LPAR5 (Mus musculus, UniProt Q149R9).
T2 construct: two cell lines were used with high LPAR5 expression; endogenous in cells; host or cells: BV-2 murine microglia cell line
T2 sequence (Q149R9 whole entry): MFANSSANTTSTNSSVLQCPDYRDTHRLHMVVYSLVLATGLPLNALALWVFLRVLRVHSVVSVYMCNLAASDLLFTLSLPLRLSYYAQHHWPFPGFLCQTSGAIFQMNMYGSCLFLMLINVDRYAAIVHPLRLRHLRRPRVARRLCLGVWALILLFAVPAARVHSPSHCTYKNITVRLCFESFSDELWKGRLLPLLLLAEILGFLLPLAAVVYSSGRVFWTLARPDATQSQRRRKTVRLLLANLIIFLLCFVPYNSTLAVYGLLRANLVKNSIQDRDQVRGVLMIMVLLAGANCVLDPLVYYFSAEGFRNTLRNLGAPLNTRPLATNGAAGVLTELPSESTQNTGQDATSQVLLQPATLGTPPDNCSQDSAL
Nature of the assay: FLIPR assay, intracellular Ca2+ release in murine microglia cell line BV-2. The conditions noted are these: murine microglia cell line BV-2, LPA-stimulated Ca2+ release, test compounds added 10 minutes prior LPA.
Description: as §1, §2
Cells in loading buffer were incubated for 45-60 minutes at 37° C. After incubation cells were centrifuged for 3 minutes at 540×g and resuspended with 21 ml of HBSS buffer (pH 7.4). Each well of a poly-D-lysine coated 96-well-plate was filled with 150 μl cell solution, an equivalent of 100 000 cells/well. The 96-well-plate was centrifuged for 2 minutes at 100×g (without brake) prior a recovery time of 30 minutes at 37° C. After this procedure cells were stimulated with LPA (in HBSS pH 7.4 and 0.1% BSA) to determine the EC50 of LPA in HMC-1 cells. For the determination of the inhibitory effect of compounds of the formula I, test compounds were added to the cells in the 96-well-plate 10 minutes prior the addition of LPA. Results of the assay are expressed as % activation, and are calculated using maximum peak of activation (Amax). […]

T1 sequence (Q9H1C0 whole entry): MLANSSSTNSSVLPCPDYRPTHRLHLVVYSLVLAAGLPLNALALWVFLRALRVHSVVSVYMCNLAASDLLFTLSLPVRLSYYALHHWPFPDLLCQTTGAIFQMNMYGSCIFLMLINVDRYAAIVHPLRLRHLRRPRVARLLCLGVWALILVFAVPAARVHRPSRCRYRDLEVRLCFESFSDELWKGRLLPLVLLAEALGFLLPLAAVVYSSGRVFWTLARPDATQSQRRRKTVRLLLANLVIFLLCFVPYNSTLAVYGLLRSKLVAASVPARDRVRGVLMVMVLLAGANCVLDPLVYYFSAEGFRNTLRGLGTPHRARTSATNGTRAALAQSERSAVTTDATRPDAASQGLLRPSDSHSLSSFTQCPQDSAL

Turning to `O=C(O)C1Oc2ccc(Cl)cc2C(C2CCCCC2)(C2CCCCC2)O1` (stereo not drawn) [Example 1, 6-Chloro-4,4-dicyclohexyl-4H-benzo[1,3]dioxine-2-carboxylic acid], the values for the IC50 at LPA receptor LPAR5 [1], against LPA receptor LPAR5 [2] and on LPA receptor LPAR5 [3] were 1.1 µM, 3.2 µM and 4.1 µM, respectively.

(Values after patent US9221784B2, “Benzo[1,3]dioxine derivatives and their use as LPAR5 antagonists” (SANOFI, priority 2012, dated 2015).)
